Results on 10 compounds are retold here after ChEMBL document CHEMBL1201862, “PubChem BioAssay data set” (2004).

Some test systems named below: ACHN; BT-549; CAKI-1; COLO 205; DU-145; HL-60; HOP-92; Hs-578T; K562; KM12; M14; MCF7; PC-3; SF-268; SF-539; SK-MEL-2; SK-MEL-5; SK-OV-3; U-251.
Common to all, as to experiment: NCI-60 cell line screen, 48 h

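How tested: cells in 96-well plates exposed to compound for 48 hours at five concentrations. At the GI50, growth is halved.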 Activity calls are given as the source filed them. Rule as the data show it: active = GI50 up to about 1.1 µM and inactive = higher.

Regarding `COc1ccc2c(c1)CC[C@@H]1C2CC[C@]2(C)OC(=O)CCC12` (stereo not given in full), the GI50 in the test on ACHN was 50.8 µM (inactive); in the test with BT-549, 11.4 µM (inactive); with CAKI-1 it was 31.6 µM (inactive); in the test with COLO 205, 40.3 µM (inactive); in the test on DU-145, 43.6 µM (inactive); with HL-60, > 100 µM (inactive). The GI50 in the test with HOP-92 is 13 µM (inactive); with Hs-578T, 14.4 µM (inactive); in the test on K562 it was 3.01 µM (inactive); in the test on KM12, 32.2 µM (inactive); with M14 it was 13.2 µM (inactive); with MCF7, 15 µM (inactive). Further, the GI50 is 12.6 µM (inactive) in the test on PC-3; 12.1 µM (inactive) in the test with SF-268; 15.2 µM (inactive) with SF-539; 23.1 µM (inactive) with SK-MEL-2; 12.6 µM (inactive) in the test on SK-MEL-5; > 100 µM (inactive) in the test with SK-OV-3. For the same compound, the GI50 in the test with U-251 was 6.87 µM (inactive).

On to `CN(C)c1ccc(/C=C/c2ccnc3ccccc23)cc1`, for which the GI50 with ACHN was 40.3 µM (inactive); with BT-549, 18.2 µM (inactive); in the test with CAKI-1, > 100 µM (inactive); in the test with COLO 205, 28.8 µM (inactive); in the test on DU-145, 47.9 µM (inactive); in the test on HL-60 it was 31.6 µM (inactive). The GI50 is 93.3 µM (inactive) with HOP-92; 14.5 µM (inactive) in the test with Hs-578T; 33.5 µM (inactive) in the test with K562; 55.8 µM (inactive) in the test with KM12; 65.8 µM (inactive) in the test with M14; 90.2 µM (inactive) in the test with MCF7. The GI50 is > 100 µM (inactive) in the test with PC-3; > 100 µM (inactive) in the test on SF-268; > 100 µM (inactive) in the test with SF-539; 58.2 µM (inactive) in the test on SK-MEL-2; 75.9 µM (inactive) in the test on SK-MEL-5; 54.5 µM (inactive) in the test on SK-OV-3. Further, in the test with U-251, the GI50 is 84.7 µM (inactive).

As for `O=[N+]([O-])c1ccc2c3ccccc3[s+]([O-])c2c1` (stereo not given), the GI50 in the test on ACHN was > 100 µM (inactive); with BT-549 it was > 100 µM (inactive); with CAKI-1 it was > 100 µM (inactive); with COLO 205, 63.7 µM (inactive); with DU-145, > 100 µM (inactive); in the test on HL-60, 88.5 µM (inactive). The GI50 is > 100 µM (inactive) with HOP-92; > 100 µM (inactive) in the test on Hs-578T; > 100 µM (inactive) with K562; > 100 µM (inactive) in the test on KM12; > 100 µM (inactive) with M14; 74 µM (inactive) with MCF7. The GI50 with PC-3, in the test with SF-268, with SF-539, in the test on SK-MEL-2, in the test with SK-MEL-5 and with SK-OV-3 was > 100 µM (inactive) throughout. Besides, in the test with U-251, the GI50 is > 100 µM (inactive).

`Cc1cc(C)nc(NS(=O)(=O)c2ccc(Nc3c4ccccc4nc4ccc(C(=O)Nc5ccc(S(=O)(=O)N=C(N)N)cc5)cc34)cc2)n1`: the GI50 is > 100 µM (inactive) with ACHN; 30.5 µM (inactive) in the test on BT-549; > 100 µM (inactive) in the test on CAKI-1; > 100 µM (inactive) in the test on COLO 205; > 100 µM (inactive) with DU-145; 34.3 µM (inactive) in the test on HL-60. Also, the GI50 is 26 µM (inactive) in the test on HOP-92; > 100 µM (inactive) in the test on Hs-578T; 25.2 µM (inactive) in the test with K562; > 100 µM (inactive) in the test with KM12; > 100 µM (inactive) with M14; 23.2 µM (inactive) in the test with MCF7. Also, the GI50 is > 100 µM (inactive) with PC-3; 69.5 µM (inactive) in the test on SF-268; > 100 µM (inactive) in the test on SF-539; > 100 µM (inactive) in the test with SK-MEL-2; 97.3 µM (inactive) in the test on SK-MEL-5; > 100 µM (inactive) with SK-OV-3. Also, in the test with U-251, the GI50 is 60.7 µM (inactive).

Regarding `CC1=C(C)C(=O)O[C@@H]([C@](C)(O)[C@]2(O)CC[C@@]3(O)[C@@H]4C[C@H](O)[C@]5(O)[C@@H](O)C=CC(=O)[C@]5(C)[C@H]4CC[C@]23C)C1`, the GI50 in the test on ACHN was > 100 µM (inactive); in the test with BT-549, > 100 µM (inactive); in the test on CAKI-1, > 100 µM (inactive); with COLO 205, > 100 µM (inactive); with DU-145, > 100 µM (inactive); with HL-60, 18 µM (inactive). The GI50 was > 100 µM (inactive) in the test with HOP-92; > 100 µM (inactive) with Hs-578T; 67.3 µM (inactive) with K562; > 100 µM (inactive) in the test on KM12; > 100 µM (inactive) with M14; 46.2 µM (inactive) with MCF7. Moreover, the GI50 in the test on PC-3, with SF-268, in the test with SF-539, in the test with SK-MEL-2, in the test on SK-MEL-5 and with SK-OV-3 was > 100 µM (inactive) in each case. In addition, the GI50 with U-251 is 89.9 µM (inactive).

As to `C=CC(COC(=O)C(C)(C)OC(C)=O)c1ccc(OC(=O)C(C)C)c(OC)c1` (stereo not given), the GI50 was 2.88 µM (inactive) with ACHN; 8.87 µM (inactive) in the test with BT-549; 1.96 µM (inactive) in the test on CAKI-1; 2.46 µM (inactive) with COLO 205; 11.2 µM (inactive) in the test on DU-145; 4.6 µM (inactive) with HL-60. Further, the GI50 is 2.73 µM (inactive) with HOP-92; 7.46 µM (inactive) in the test on Hs-578T; 30.5 µM (inactive) in the test with K562; 4.07 µM (inactive) with KM12; 6.43 µM (inactive) in the test with M14; 2.51 µM (inactive) in the test with MCF7. For the same compound, the GI50 was 9.68 µM (inactive) with PC-3; 5.2 µM (inactive) with SF-268; 11.8 µM (inactive) in the test on SF-539; 9.62 µM (inactive) in the test on SK-MEL-2; 13.5 µM (inactive) with SK-MEL-5; 16.5 µM (inactive) with SK-OV-3. The GI50 in the test on U-251 is 3.59 µM (inactive).

Take `Cc1cc2c(cc1C)C(=O)/C(=N/Nc1ccc(F)cc1)CCO2`: the GI50 in the test on ACHN is > 100 µM (inactive); with BT-549, > 100 µM (inactive); with CAKI-1, > 100 µM (inactive); in the test with COLO 205, > 100 µM (inactive); with DU-145, > 100 µM (inactive); with HL-60 it was 26.4 µM (inactive). The GI50 in the test with HOP-92 was > 100 µM (inactive); with Hs-578T it was > 100 µM (inactive); in the test on K562 it was > 100 µM (inactive); with KM12, > 100 µM (inactive); in the test with M14 it was 87.5 µM (inactive); in the test with MCF7 it was > 100 µM (inactive). The GI50 in the test with PC-3 is > 100 µM (inactive); in the test with SF-268 it was > 100 µM (inactive); with SF-539, > 100 µM (inactive); with SK-MEL-2, 20.4 µM (inactive); in the test with SK-MEL-5, 95.3 µM (inactive); in the test with SK-OV-3, > 100 µM (inactive). Moreover, the GI50 in the test with U-251 is > 100 µM (inactive).

`CC(=O)OC(C)(C)/C=C/C(=O)[C@](C)(O)[C@H]1[C@H](O)C[C@@]2(C)[C@@H]3CC=C4[C@@H](C[C@H](O)C(=O)C4(C)C)[C@]3(C)C(=O)C[C@]12C`: the GI50 with ACHN, in the test on BT-549, in the test on CAKI-1, in the test with COLO 205, in the test on DU-145 and with HL-60 was < 0.01 µM (active) each time. For the same compound, the GI50 is 0.0175 µM (active) in the test on HOP-92; < 0.01 µM (active) in the test on Hs-578T; < 0.01 µM (active) with K562; 1.4 µM (inactive) with KM12; < 0.01 µM (active) with M14; < 0.01 µM (active) with MCF7. Moreover, the GI50 in the test on PC-3, in the test with SF-268, in the test on SF-539, with SK-MEL-2, in the test on SK-MEL-5 and in the test with SK-OV-3 was < 0.01 µM (active) throughout. In the test with U-251, the GI50 was < 0.01 µM (active).

As for `Cc1c(Cl)c(C)c(Cl)c(O)c1Cl`, the GI50 is 22.8 µM (inactive) with ACHN; 24.3 µM (inactive) with BT-549; 21.4 µM (inactive) with CAKI-1; 60 µM (inactive) in the test on COLO 205; 37 µM (inactive) in the test with DU-145; 18.7 µM (inactive) in the test with HL-60. Further, the GI50 in the test on HOP-92 was 19.1 µM (inactive); in the test on Hs-578T, 19.9 µM (inactive); in the test on K562 it was 17.5 µM (inactive); with KM12 it was 26.3 µM (inactive); in the test with M14, 20.5 µM (inactive); with MCF7, 31.6 µM (inactive). Besides, the GI50 is 19.8 µM (inactive) in the test on PC-3; 26.7 µM (inactive) in the test on SF-268; 29 µM (inactive) in the test with SF-539; 13.2 µM (inactive) in the test on SK-MEL-2; 15.3 µM (inactive) with SK-MEL-5; 26.5 µM (inactive) in the test on SK-OV-3. In addition, in the test with U-251, the GI50 was 16.3 µM (inactive).

Consider `COc1ccc(C[C@@H]2OC3(C=CC(=O)C=C3)O[C@H]2Cc2ccc(OC)cc2)cc1`, for which the GI50 with ACHN was 0.405 µM (active); in the test on BT-549 it was 0.221 µM (active); in the test on CAKI-1 it was 0.354 µM (active); with COLO 205 it was 1.43 µM (inactive); in the test with DU-145, 1.48 µM (inactive); with HL-60, 1.52 µM (inactive). In addition, the GI50 in the test with HOP-92 is 0.653 µM (active); in the test on Hs-578T, 0.971 µM (active); in the test on K562, 0.61 µM (active); with KM12, 1.91 µM (inactive); in the test on M14, 0.889 µM (active); with MCF7, 0.558 µM (active). Besides, the GI50 in the test with PC-3 is 1.33 µM (inactive); with SF-268 it was 0.771 µM (active); in the test with SF-539 it was 1.14 µM (inactive); with SK-MEL-2 it was 1.38 µM (inactive); with SK-MEL-5, 1.52 µM (inactive); with SK-OV-3 it was 6.15 µM (inactive). Moreover, the GI50 with U-251 is 1.28 µM (inactive).
